# Source: patent publication US8440209B2, “Adhesive for medical applications and means for haemostasis” (Stryker Trauma GmbH, priority 2006, dated 2013)
# Test system: S. aureus ATCC 6538
# Assay: agar diffusion test according to Burkhardt
# Format: cell-based
# Conditions: 18+2 hours at 36° C.
# Description: The agar diffusion test according to Burkhardt (Burkhardt, F. (Hrsg.) Mikrobiologische Diagnostik. Georg-Thieme Verlag Stuttgart, New York 1992, p. 724) was carried out. Mueller-Hinton II-Agar in Stacker Petri dishes (Becton Dickinson Microbiology Systems, Cockeysville, USA) were employed in the test for 15. The strain S. aureus ATCC 6538 was selected as test strain. The initial seed of this test strain was chosen such that after […] of incubation, closely standing, but not confluent, single colonies had developed. After drying of the seeded culture media, the treated collagen non-woven material was applied to the agar surface. After 18+2 hours incubation at 36° C., the inhibition sphere was measured.
substance,measurement,setting,value
Gentamycine,Inhibition sphere against S. aureus ATCC 6538,Treatment 20%,24
same,Inhibition sphere against S. aureus ATCC 6538,Treatment 40%,38
